# Where two headings read alike, the source gives them in different places.
# Key:
# HCC 1.2 cells = conditions: 48 h
# Method: (§1) The SCGE experiments were conducted as described in an international guideline (Tice et al. [2000]). Reagents for the assays (lysis solution and alkaline electrophoresis buffer) and agarose-coated slides were prepared according to Collins and Dusinska ([2009]).
# (§2) Briefly, cells were sub-cultured in 1.0 ml medium in 24–well tissue-culture plates (Sarstedt Inc., Newton, NC, USA). After 24 h, the media were changed and the cells exposed to different concentrations of the test compounds or to the solvent controls (PBS or DMSO). […] To terminate the treatment, the cells were washed twice with PBS (1.0 ml), trypsinized (100 µl T/E per well, 4 min) and then resuspended in 400 µl culture medium containing FBS. Subsequently, the suspensions were transferred to Eppendorf tubes and centrifuged (200g, 5 min). Cell pellets were resuspended in cold PBS.
# (§3) In all experiments, acute toxic effects were determined with a CASY® Cell Counter and Analyzer System (Schärfe-System GmbH, Reutlingen, Germany) (Lindl et al. [2005]). SCGE assays were only performed when the viability of the cultures was ≥ 70% (Koppen et al. [2017]). Per experimental point, two cultures were set up in parallel and from each one slide with two separate gels (30,000 cells/gel) was prepared. After unwinding (40 min, pH > 13) and electrophoresis (30 min, 0.75 V/cm, ~ 300 mA, 4 °C, pH > 13), 50 cells were evaluated per gel (200 cells per experimental point). As an endpoint, we determined the tail intensities (“% DNA in tail”) with a computer-aided system Comet Assay IV (Perceptive Instruments, Bury St Edmunds, UK), which is at present the most widely used parameter (Collins et al. [2008]; Moller [2006]). For each gel, the median of the tail intensity was calculated.
# Hep3B cells = conditions: Hep3B, 48 h
# Method: as §1, §2, §3
# HepG2 cells = conditions: 48 h
# Method: as §1, §2, §3
# HepaRG cells = conditions: for Result of SCGE experiments (in words): HepaRG cells; for % DNA in tail: HepaRG, 48 h
# Method: as §1, §2, §3
# HuH6 cells = conditions: 48 h
# Method: as §1, §2, §3
# HuH7 cells = conditions: 48 h
# Method: as §1, §2, §3
# JHH6 cells = conditions: 48 h, control 0.59 ± 0.21
# Method: as §1, §2, §3
# PLC/PRF cells = conditions: PLC/PRF, 48 h
# Method: as §1, §2, §3
# SK-Hep1 cells = conditions: 48 h
# Method: as §1, §2, §3
# SNU-398 cells = conditions: 48 h
# Method: as §1, §2, §3
# SNU-449 cells = conditions: 48 h
# Method: as §1, §2, §3
# WRL68 cells = conditions: 48 h
# Method: as §1, §2, §3
# [1] = system: human derived liver cell lines; conditions: for Number of the twelve lines sensitive towards the compound: SCGE experiments without exogenous enzyme activation mix
# Method: as §1, §2, §3
# [2] = ref IARC [1993]; cited from earlier work
# [3] = system: primary human hepatocytes; conditions: ref Wilkening et al. [2003]; cited from earlier work
smiles,measurement,setting,value
"Cn1c(N)nc2c3cccnc3ccc21 [IQ, 2-amino-3-methyl-3H-imidazo[4,5-f]quinolone]",% DNA in tail,"HCC 1.2 cells; HCC 1.2, IQ 50.0 µM, control 2.93 ± 1.40",1.86 ± 0.44%
same,% DNA in tail,"HCC 1.2 cells; HCC 1.2, IQ 100.0 µM, control 2.93 ± 1.40, starred P ≤ 0.05",7.29 ± 1.87%
same,% DNA in tail,"Hep3B cells; IQ 50.0 µM, control 0.92 ± 0.58",0.88 ± 0.71%
same,% DNA in tail,"Hep3B cells; IQ 100.0 µM, control 0.92 ± 0.58",1.75 ± 1.45%
same,% DNA in tail,"HepG2 cells; HepG2, IQ 50.0 µM, control 2.16 ± 0.54",1.32 ± 0.91%
same,% DNA in tail,"HepG2 cells; HepG2, IQ 100.0 µM, control 2.16 ± 0.54, starred P ≤ 0.05",5.38 ± 2.02%
same,Result of SCGE experiments (in words),HepaRG cells,negative results
same,% DNA in tail,"HepaRG cells; IQ 50.0 µM, control 2.34 ± 2.92",2.39 ± 4.10%
same,% DNA in tail,"HepaRG cells; IQ 100.0 µM, control 2.34 ± 2.92",2.38 ± 1.97%
same,% DNA in tail,"HuH6 cells; HuH6, IQ 50.0 µM, control 4.01 ± 1.68",5.91 ± 3.05%
same,% DNA in tail,"HuH6 cells; HuH6, IQ 100.0 µM, control 4.01 ± 1.68, starred P ≤ 0.05",10.82 ± 5.71%
same,% DNA in tail,"HuH7 cells; HuH7, IQ 50.0 µM, control 1.29 ± 1.30",2.16 ± 0.91%
same,% DNA in tail,"HuH7 cells; HuH7, IQ 100.0 µM, control 1.29 ± 1.30",1.11 ± 0.60%
same,% DNA in tail,"JHH6 cells; JHH6, IQ 50.0 µM",1.29 ± 1.55%
same,% DNA in tail,"JHH6 cells; JHH6, IQ 100.0 µM",0.93 ± 0.67%
same,% DNA in tail,"PLC/PRF cells; IQ 50.0 µM, control 2.47 ± 2.08",5.17 ± 4.50%
same,% DNA in tail,"PLC/PRF cells; IQ 100.0 µM, control 2.47 ± 2.08",2.84 ± 2.65%
same,% DNA in tail,"SK-Hep1 cells; SK-Hep1, IQ 50.0 µM, control 0.59 ± 0.24",0.62 ± 0.47%
same,% DNA in tail,"SK-Hep1 cells; SK-Hep1, IQ 100.0 µM, control 0.59 ± 0.24",1.43 ± 0.95%
same,% DNA in tail,"SNU-398 cells; SNU-398, IQ 50.0 µM, control 1.02 ± 0.88",1.42 ± 0.72%
same,% DNA in tail,"SNU-398 cells; SNU-398, IQ 100.0 µM, control 1.02 ± 0.88",1.20 ± 0.81%
same,% DNA in tail,"SNU-449 cells; SNU-449, IQ 50.0 µM, control 1.20 ± 1.18",3.67 ± 2.95%
same,% DNA in tail,"SNU-449 cells; SNU-449, IQ 100.0 µM, control 1.20 ± 1.18",1.46 ± 1.21%
same,% DNA in tail,"WRL68 cells; WRL68, IQ 50.0 µM, control 0.76 ± 0.77",1.15 ± 1.44%
same,% DNA in tail,"WRL68 cells; WRL68, IQ 100.0 µM, control 0.76 ± 0.77",0.56 ± 0.67%
same,Number of the twelve lines sensitive towards the compound,[1],three
same,Doses required to cause significant effects in SCGE assays,"[1]; different hepatic lines, in most cases",≥ 100 mM
same,IARC classification,[2],"Causes guanine adducts, clear evidence for carcinogenicity in experiments with rodents IARC: Group 2A"
"Cn1c(N)nc2ncc(-c3ccccc3)cc21 [PhIP, 2-amino-1-methyl-6-phenylimidazo[4,5-b]pyridine]",% DNA in tail,"HCC 1.2 cells; HCC 1.2, PhIP 50.0 µM, control 6.61 ± 2.14, starred P ≤ 0.05",17.5 ± 4.84%
same,% DNA in tail,"HCC 1.2 cells; HCC 1.2, PhIP 100.0 µM, control 6.61 ± 2.14, starred P ≤ 0.05",15.1 ± 2.32%
same,% DNA in tail,"HCC 1.2 cells; HCC 1.2, PhIP 300.0 µM, control 6.61 ± 2.14, starred P ≤ 0.05",14.8 ± 2.63%
same,% DNA in tail,"Hep3B cells; PhIP 50.0 µM, control 1.56 ± 0.18",1.43 ± 0.24%
same,% DNA in tail,"Hep3B cells; PhIP 100.0 µM, control 1.56 ± 0.18",0.82 ± 0.53%
same,% DNA in tail,"HepG2 cells; HepG2, PhIP 50.0 µM, control 2.90 ± 1.03, starred P ≤ 0.05",6.92 ± 2.00%
same,% DNA in tail,"HepG2 cells; HepG2, PhIP 100.0 µM, control 2.90 ± 1.03, starred P ≤ 0.05",6.78 ± 1.37%
same,Result of SCGE experiments (in words),HepaRG cells,detected
same,% DNA in tail,"HepaRG cells; PhIP 50.0 µM, control 0.53 ± 0.66, starred P ≤ 0.05",4.82 ± 3.57%
same,% DNA in tail,"HepaRG cells; PhIP 100.0 µM, control 0.53 ± 0.66",2.86 ± 1.73%
same,% DNA in tail,"HuH6 cells; HuH6, PhIP 50.0 µM, control 1.81 ± 1.15, starred P ≤ 0.05",11.51 ± 3.64%
same,% DNA in tail,"HuH6 cells; HuH6, PhIP 100.0 µM, control 1.81 ± 1.15, starred P ≤ 0.05",8.67 ± 2.67%
same,% DNA in tail,"HuH6 cells; HuH6, PhIP 300.0 µM, control 1.81 ± 1.15, starred P ≤ 0.05",24.7 ± 2.15%
same,% DNA in tail,"HuH7 cells; HuH7, PhIP 50.0 µM, control 5.12 ± 1.05",5.35 ± 2.84%
same,% DNA in tail,"HuH7 cells; HuH7, PhIP 100.0 µM, control 5.12 ± 1.05",9.21 ± 2.26%
same,% DNA in tail,"HuH7 cells; HuH7, PhIP 300.0 µM, control 5.12 ± 1.05",3.55 ± 2.08%
same,% DNA in tail,"JHH6 cells; JHH6, PhIP 50.0 µM",0.93 ± 1.09%
same,% DNA in tail,"JHH6 cells; JHH6, PhIP 100.0 µM",1.44 ± 0.53%
same,% DNA in tail,"PLC/PRF cells; PhIP 50.0 µM, control 3.82 ± 1.22",2.51 ± 0.56%
same,% DNA in tail,"PLC/PRF cells; PhIP 100.0 µM, control 3.82 ± 1.22",4.00 ± 3.72%
same,% DNA in tail,"PLC/PRF cells; PhIP 300.0 µM, control 3.82 ± 1.22",2.43 ± 2.03%
same,% DNA in tail,"SK-Hep1 cells; SK-Hep1, PhIP 50.0 µM, control 2.84 ± 2.06",5.18 ± 1.19%
same,% DNA in tail,"SK-Hep1 cells; SK-Hep1, PhIP 100.0 µM, control 2.84 ± 2.06",5.83 ± 1.06%
same,% DNA in tail,"SK-Hep1 cells; SK-Hep1, PhIP 300.0 µM, control 2.84 ± 2.06",5.77 ± 4.30%
same,% DNA in tail,"SNU-398 cells; SNU-398, PhIP 50.0 µM, control 5.60 ± 3.26",2.92 ± 1.18%
same,% DNA in tail,"SNU-398 cells; SNU-398, PhIP 100.0 µM, control 5.60 ± 3.26",7.04 ± 5.97%
same,% DNA in tail,"SNU-398 cells; SNU-398, PhIP 300.0 µM, control 5.60 ± 3.26",10.3 ± 1.06%
same,% DNA in tail,"SNU-449 cells; SNU-449, PhIP 50.0 µM, control 2.12 ± 0.59",2.02 ± 0.81%
same,% DNA in tail,"SNU-449 cells; SNU-449, PhIP 100.0 µM, control 2.12 ± 0.59",3.06 ± 1.08%
same,% DNA in tail,"SNU-449 cells; SNU-449, PhIP 300.0 µM, control 2.12 ± 0.59",1.17 ± 0.83%
same,% DNA in tail,"WRL68 cells; WRL68, PhIP 50.0 µM, control 2.89 ± 1.16",5.17 ± 3.21%
same,% DNA in tail,"WRL68 cells; WRL68, PhIP 100.0 µM, control 2.89 ± 1.16",3.77 ± 1.36%
same,% DNA in tail,"WRL68 cells; WRL68, PhIP 300.0 µM, control 2.89 ± 1.16",3.39 ± 3.35%
same,Number of the twelve lines sensitive towards the compound,[1],four
same,Sensitivity of primary hepatocytes compared with HepG2,[3],substantially stronger effects
same,IARC classification,[2],Causes guanine adducts that induces tumors at multiple sites in animal models IARC: Group 2B

# Reference: article PMC5818615, “Use of HuH6 and other human-derived hepatoma lines for the detection of genotoxins: a new hope for laboratory animals?” (Archives of Toxicology, 2017)
